Common to all, as to assay type: physicochemical
A short description of data set [1]: Dissolution test for L-DOPA ethyl ester/carbidopa dispersible tablets in water (USP dissolution apparatus, HPLC-UV). The settings on record: 100 ml purified water, room temperature, paddles 200 rpm. The method, then: The dissolution of L-DOPA ethyl ester and carbidopa dispersible tablets was measured in water at room temperature according to the following methodology which was designed to simulate the administration of these tablets to patients. The recommended use is to place a tablet (384 mg) for a few seconds in about 100 mls of water, and to dissolve while swirling or stirring. The suspension should be drunk within 30 minutes. In order to automate the measurement, a USP 6-Pot Dissolution Apparatus is used. Each of 6 tablets are dissolved in 100 ml of purified water in a 200 ml vessel at room temperature (23±2° C.). This is the minimum volume which may be used with the USP Dissolution Apparatus. The solutions are stirred with paddles rotating at 200 rpm, which simulates the turbulence caused when the solution is stirred in a cup, with a teaspoon. […] In this experiment specifically, the amount of L-DOPA ethyl ester or carbidopa is determined by using a 10 cm C18 column, based on 3 μ-diameter spherical silica particles with 100 Å pore size. The elution solvents comprise a gradient of acetonitrile and phosphate buffer with ion-pairing reagent (at pH 2.7). The detection technique is ultraviolet absorption at 280 nm, the wavelength of maximum absorption for both L-DOPA ethyl ester and Carbidopa.

A short description of data set [2]: L-DOPA ethyl ester degradation in solution and tablets, measured as level of L-DOPA over six months. As to conditions: oral solution acidified with HCl. The method, then:
A comparison of L-DOPA ethyl ester (LDEE) degradation in LDEE oral solution (4° C.), and in two environmental conditions of LDEE and Carbidopa dispersible tablets (at 25° C./60% RH and at 40° C./75% RH), was performed by measuring the change in levels of L-DOPA in samples over a six month period of time. L-DOPA is the main degradation product of L-DOPA ethyl ester. Elevation in the level of L-DOPA indicates degradation of LDEE.
The change in the level of L-DOPA with time, expressed as percent of the concentration of LDEE in the sample, was determined in LDEE and Carbidopa Dispersible Tablets (Formulation V, packed in aluminum blisters) and in LDEE oral solution (packed in PET bottles). The composition of the solution was (per 1 ml): 57.1 mg LDEE, 1.2 mg Methylparaben, 1.6 mg Saccharin sodium, 0.1 mg Edetate disodium and cherry flavor. The solution was acidified with HCl to pH 4.0, in which the stability of LDEE is maximal. The solution was kept in refrigeration (4° C.) while the tablets were kept at room conditions (25° C. and 60% relative humidity) or in accelerated stability conditions (40° C. and 75% relative humidity). The results are shown below in Table 4 and in FIG. 4: […]

Data set [3] in a line: Stability of L-DOPA ethyl ester composition on incubation at 40° C. As to conditions: after incubation for 6 months at 40° C.

This is an account of results in patent US6703424B2, “Dispersible compositions containing L-DOPA ethyl ester” (Teva Pharmaceutical Industries, Ltgd., priority 1998, dated 2004).

Consider `CCOC(=O)[C@@H](N)Cc1ccc(O)c(O)c1` [L-DOPA Ethyl Ester, L-DOPA ethyl ester], for which the “Percentage of Dissolution” value was 67.2% in data set [1] (1 minute), 90.1% in data set [1] (2 minutes) and 102.7% in data set [1] (5 minutes). The “pH at which the stability of LDEE is maximal” value in data set [2] came to 4.0. In data set [3], the “L-DOPA ethyl ester content remaining” value is given as “at least 97 % by weight of the active ingredient”.

For `C[C@@](Cc1ccc(O)c(O)c1)(NN)C(=O)O` [Carbidopa, reference compound], the “Percentage of Dissolution” value is recorded as 64.3% in data set [1] (1 minute), 87.6% in data set [1] (2 minutes) and 101.4% in data set [1] (5 minutes).
